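96-well plates; 48 h exposure; 5 concentrations. Endpoints by linear interpolation between flanking doses. Not reached: highest tested concentration assigned. Definition used: TGI = concentration required for complete inhibition of growth.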 Where a SMILES comes first, the peptide text is derived from it. The star is where a group is joined. Pentanoyl = CCCCC(=O)*; Boc = CC(C)(C)OC(=O)*
Columns and labels:
Test in all cases: DTP human tumour cell line panel, 48 h
786-0 renal = tested on: 786-0 renal
A498 renal = tested on: A498 renal
A549 NSCLC = tested on: A549 NSCLC
ACHN renal = tested on: ACHN renal
BT-549 breast = tested on: BT-549 breast
CAKI-1 renal = tested on: CAKI-1 renal
CCRF-CEM leukemia = tested on: CCRF-CEM leukemia
COLO 205 colon = tested on: COLO 205 colon
DU-145 prostate = tested on: DU-145 prostate
HCC-2998 colon = tested on: HCC-2998 colon
HCT-116 colon = tested on: HCT-116 colon
HCT-15 colon = tested on: HCT-15 colon
HL-60(TB) leukemia = tested on: HL-60(TB) leukemia
HOP-62 NSCLC = tested on: HOP-62 NSCLC
HOP-92 NSCLC = tested on: HOP-92 NSCLC
HS 578T breast = tested on: HS 578T breast
HT29 colon = tested on: HT29 colon
IGROV1 ovarian = tested on: IGROV1 ovarian
K-562 leukemia = tested on: K-562 leukemia
KM12 colon = tested on: KM12 colon
LOX IMVI melanoma = tested on: LOX IMVI melanoma
M14 melanoma = tested on: M14 melanoma
MALME-3M melanoma = tested on: MALME-3M melanoma
MCF7 breast = tested on: MCF7 breast
MDA-MB-231 breast = tested on: MDA-MB-231 breast
MDA-MB-435 = tested on: MDA-MB-435
MDA-N = tested on: MDA-N
MOLT-4 leukemia = tested on: MOLT-4 leukemia
NCI-H226 lung = tested on: NCI-H226 lung
NCI-H23 lung = tested on: NCI-H23 lung
NCI-H460 lung = tested on: NCI-H460 lung
NCI-H522 lung = tested on: NCI-H522 lung
NCI/ADR-RES ovarian = tested on: NCI/ADR-RES ovarian
OVCAR-3 ovarian = tested on: OVCAR-3 ovarian
OVCAR-4 ovarian = tested on: OVCAR-4 ovarian
OVCAR-5 ovarian = tested on: OVCAR-5 ovarian
OVCAR-8 ovarian = tested on: OVCAR-8 ovarian
PC-3 prostate = tested on: PC-3 prostate
RPMI-8226 leukemia = tested on: RPMI-8226 leukemia
RXF 393 renal = tested on: RXF 393 renal
SF-268 CNS = tested on: SF-268 CNS
SF-295 CNS = tested on: SF-295 CNS
SF-539 CNS = tested on: SF-539 CNS
SK-MEL-2 melanoma = tested on: SK-MEL-2 melanoma
SK-MEL-28 melanoma = tested on: SK-MEL-28 melanoma
SK-MEL-5 melanoma = tested on: SK-MEL-5 melanoma
SK-OV-3 ovarian = tested on: SK-OV-3 ovarian
SN12C renal = tested on: SN12C renal
SNB-19 CNS = tested on: SNB-19 CNS
SNB-75 CNS = tested on: SNB-75 CNS
SW-620 colon = tested on: SW-620 colon
T-47D breast = tested on: T-47D breast
TK-10 renal = tested on: TK-10 renal
U251 CNS = tested on: U251 CNS
UACC-257 melanoma = tested on: UACC-257 melanoma
UACC-62 melanoma = tested on: UACC-62 melanoma
UO-31 renal = tested on: UO-31 renal
EKVX NSCLC = tested on: EKVX NSCLC

SMILES: CCCCC(=O)Oc1ccc(CC(NC(=O)OC(C)(C)C)C(=O)NC(C)C(=O)NC(Cc2ccccc2)C(=O)NCC(N)=O)cc1 (stereo not given) (Boc-Y(Pentanoyl)AFG-NH2; configuration not given here)
- TGI (786-0 renal): > 100 µM
- TGI (A498 renal): > 100 µM
- TGI (A549 NSCLC): > 100 µM
- TGI (ACHN renal): > 100 µM
- TGI (BT-549 breast): 55.7 µM
- TGI (CAKI-1 renal): > 100 µM
- TGI (CCRF-CEM leukemia): > 100 µM
- TGI (COLO 205 colon): 37.6 µM
- TGI (DU-145 prostate): > 100 µM
- TGI (HCC-2998 colon): 38.8 µM
- TGI (HCT-116 colon): 47.1 µM
- TGI (HCT-15 colon): > 100 µM
- TGI (HL-60(TB) leukemia): 61 µM
- TGI (HOP-62 NSCLC): 50 µM
- TGI (HOP-92 NSCLC): 99.4 µM
- TGI (HS 578T breast): > 100 µM
- TGI (HT29 colon): 40 µM
- TGI (IGROV1 ovarian): 53.7 µM
- TGI (K-562 leukemia): > 100 µM
- TGI (KM12 colon): 47.8 µM
- TGI (LOX IMVI melanoma): 30.7 µM
- TGI (M14 melanoma): > 100 µM
- TGI (MALME-3M melanoma): > 100 µM
- TGI (MCF7 breast): 41.8 µM
- TGI (MDA-MB-231 breast): 41.6 µM
- TGI (MDA-MB-435): 45.1 µM
- TGI (MDA-N): 65.8 µM
- TGI (MOLT-4 leukemia): 54.2 µM
- TGI (NCI-H226 lung): > 100 µM
- TGI (NCI-H23 lung): > 100 µM
- TGI (NCI-H460 lung): > 100 µM
- TGI (NCI-H522 lung): 39.5 µM
- TGI (NCI/ADR-RES ovarian): > 100 µM
- TGI (OVCAR-3 ovarian): 39.2 µM
- TGI (OVCAR-4 ovarian): > 100 µM
- TGI (OVCAR-5 ovarian): 52 µM
- TGI (OVCAR-8 ovarian): 62.5 µM
- TGI (PC-3 prostate): > 100 µM
- TGI (RPMI-8226 leukemia): 44.8 µM
- TGI (RXF 393 renal): > 100 µM
- TGI (SF-268 CNS): > 100 µM
- TGI (SF-295 CNS): > 100 µM
- TGI (SF-539 CNS): > 100 µM
- TGI (SK-MEL-2 melanoma): 41.1 µM
- TGI (SK-MEL-28 melanoma): 64.1 µM
- TGI (SK-MEL-5 melanoma): > 100 µM
- TGI (SK-OV-3 ovarian): > 100 µM
- TGI (SN12C renal): > 100 µM
- TGI (SNB-19 CNS): 59 µM
- TGI (SNB-75 CNS): > 100 µM
- TGI (SW-620 colon): > 100 µM
- TGI (T-47D breast): 79 µM
- TGI (TK-10 renal): > 100 µM
- TGI (U251 CNS): 40.6 µM
- TGI (UACC-257 melanoma): 71.4 µM
- TGI (UACC-62 melanoma): 45.5 µM
- TGI (UO-31 renal): > 100 µM

SMILES: COc1ccc2c(c1)c1c(n2CCN(C)C)-c2cccc(OC)c2CC1
- TGI (786-0 renal): > 100 µM
- TGI (A498 renal): 44.9 µM
- TGI (A549 NSCLC): 40.9 µM
- TGI (ACHN renal): 38.8 µM
- TGI (BT-549 breast): 40.5 µM
- TGI (CAKI-1 renal): 29.1 µM
- TGI (CCRF-CEM leukemia): 15.1 µM
- TGI (COLO 205 colon): 27.7 µM
- TGI (DU-145 prostate): 39.5 µM
- TGI (EKVX NSCLC): 35 µM
- TGI (HCC-2998 colon): 34.9 µM
- TGI (HCT-116 colon): 50.3 µM
- TGI (HCT-15 colon): 45.9 µM
- TGI (HOP-62 NSCLC): 27.6 µM
- TGI (HOP-92 NSCLC): 44.2 µM
- TGI (HS 578T breast): 33.5 µM
- TGI (HT29 colon): 14 µM
- TGI (IGROV1 ovarian): 39 µM
- TGI (K-562 leukemia): 16.4 µM
- TGI (KM12 colon): 25.4 µM
- TGI (LOX IMVI melanoma): 37.4 µM
- TGI (M14 melanoma): 24.9 µM
- TGI (MCF7 breast): 29.5 µM
- TGI (MDA-MB-231 breast): 35.2 µM
- TGI (MDA-MB-435): 28 µM
- TGI (MDA-N): 26.1 µM
- TGI (MOLT-4 leukemia): 26.8 µM
- TGI (NCI-H226 lung): 17.1 µM
- TGI (NCI-H23 lung): 36.9 µM
- TGI (NCI-H460 lung): 41.5 µM
- TGI (NCI-H522 lung): 15.6 µM
- TGI (NCI/ADR-RES ovarian): 47.3 µM
- TGI (OVCAR-3 ovarian): 30.9 µM
- TGI (OVCAR-4 ovarian): 46.9 µM
- TGI (OVCAR-5 ovarian): 29.8 µM
- TGI (OVCAR-8 ovarian): 42.4 µM
- TGI (PC-3 prostate): 24.2 µM
- TGI (RPMI-8226 leukemia): 18.2 µM
- TGI (SF-268 CNS): 38.9 µM
- TGI (SF-295 CNS): 35.9 µM
- TGI (SK-MEL-2 melanoma): 30.2 µM
- TGI (SK-MEL-28 melanoma): 32 µM
- TGI (SK-MEL-5 melanoma): 35 µM
- TGI (SK-OV-3 ovarian): 35 µM
- TGI (SN12C renal): 35.5 µM
- TGI (SNB-19 CNS): 46.8 µM
- TGI (SNB-75 CNS): 18.9 µM
- TGI (T-47D breast): 27.7 µM
- TGI (TK-10 renal): 41.5 µM
- TGI (U251 CNS): 32.6 µM
- TGI (UACC-257 melanoma): 37.7 µM
- TGI (UACC-62 melanoma): 34.6 µM
- TGI (UO-31 renal): 35.4 µM
